Assay results published in article PMC6161018, “Synthesis, Structure–Activity Relationships and In Vitro Toxicity Profile of Lactose-Based Fatty Acid Monoesters as Possible Drug Permeability Enhancers” (Pharmaceutics, 2018).
pIC50: −log10 of the molar value. “And” between values parts separate entries of the source, which are not always exact repeats. Identical values can stand only once.

How the values were obtained:
[1] = Surface tension measurements (tensiometry), CMC determination; assay type: physicochemical; conditions: for Amin (minimum area per surfactant molecule): air-water interface, calculated from Γmax; for γCMC (surface tension at CMC) / CMC (critical micelle concentration): in water, room temperature; for CMC (critical micelle concentration): straight-line interception method; for Γmax × 10^−6 (maximum surface excess): values × 10^−6, Gibbs equation from surface tension plot
Procedure: Surface tension of different concentrations of surfactant solutions in water was measured using a platinum cylindrical rod probe with wetted length of 1.6 mm (K100-Krüss force tensiometer, Hamburg, Germany) at room temperature. Approximately 1 mL of each surfactant solution was placed onto a Teflon plate and the surface of the liquid was aspirated to remove any remaining impurities. Then, the rod probe was immersed 2 mm into the liquid. Data are expressed as the mean of three repeated measurements performed at room temperature. The critical micelle concentration and the surface tension at the CMC (γCMC) were calculated through the straight-line interception method, while the Gibbs surface excess (Γmax) was calculated from the following equation:(1) Γmax=1/2.303 × n × R × T (δγ/δlogC) where T is the absolute temperature, R is the gas constant (8.314 J/mol K), C is the surfactant concentration, n = 1 for a non-ionic candidate. δγ/δlogC was calculated from the maximum slope of the plot surface tension vs. surfactant concentration in the linear region before CMC.
The minimum area per surfactant molecule at the air-water interface (Amin) was determined as follow:(2) Amin= 10^18/N × Γmax where N is the Avogadro number.

[2] = tested on: Caco-2 cells; experiment: MTT cell viability assay; assay type: cell-based; conditions: Caco-2, 24 h exposure, 50% reduction of viable cells; for pIC50: Homo sapiens
Procedure: (§1) Caco-2 and Calu-3 cells were seeded in sterile 96-well culture plates at a density of 3 × 10^4 cells per well. The cells were incubated to attain at least 80% confluence before the experiment. Stock solutions of surfactants were prepared in phosphate buffered saline (PBS). They were diluted at various concentrations (from 0.0078 to 1 mg/mL) in cell culture medium before added to the cells. Complete culture media were used as control. The cytotoxic effect of each surfactant was evaluated using the MTT cell viability assay. After 24 h of incubation, surfactant solution was discarded and replaced by MTT solution (0.8 mg/mL). The cells were subjected to MTT treatment for 2 h. Formazan crystals formed were then dissolved in absolute isopropanol and incubated with gentle shaking at room temperature for 15 min. Absorbance was measured at 570 nm using a microplate reader (Multiskan™ GO Microplate Spectrophotometer Thermo Scientific, Waltham, MA, USA). Percentage of viable cells was calculated using untreated cells as control with 100% cell viability. The percentage of viable cells was plotted against log concentration of the surfactants. IC50 (mg/mL), the concentration of surfactant that caused a 50% reduction in cell viability was calculated by fitting the experimental data with dose–response model (Prism 6, Version 6.0b, GraphPad Software).

[3] = tested on: Calu-3 cells; experiment: MTT cell viability assay; assay type: cell-based; conditions: Calu-3, 24 h exposure, 50% reduction of viable cells; for pIC50: Homo sapiens
Procedure: as §1

[4] = tested on: Caco-2 cells; experiment: Lactate dehydrogenase (LDH) release assay; assay type: cell-based; conditions: Caco-2, 24 h exposure, 50% release of LDH
Procedure: (§2) Caco-2 and Calu-3 cells were seeded in sterile 96-well culture plates at a density of 3 × 10^4 cells per well. Surfactant solutions (at the same concentration as in MTT assay described above) were added to the cells and incubated at 37 °C for 24 h. Triton X-100 at 1% v/v was used as positive control. LDH release assay was conducted according to the manufacturer’s protocol. The percentage of released LDH was calculated relative to the controls by taking samples treated with Triton X-100 as complete LDH release and untreated cells as nil LDH release.
(§3) The concentration of surfactant that caused a 50% release of LDH (IC50, mM), was calculated by fitting the experimental data with dose–response model (Prism 6, Version 6.0b, GraphPad Software).

[5] = tested on: Calu-3 cells; experiment: Lactate dehydrogenase (LDH) release assay; assay type: cell-based; conditions: Calu-3, 24 h exposure, 50% release of LDH; for pIC50: Homo sapiens
Procedure: as §2, §3

[6] = tested on: Calu-3 cell monolayer; experiment: Trans-epithelial electrical resistance (TEER) measurement; assay type: cell-based; conditions: Calu-3 monolayer, apical, 2 h, applied at MTT IC50 and at highest 100% viability concentration
Procedure: (§4) Caco-2 and Calu-3 cells were seeded at a density of 2 × 10^5 cells per well on filter inserts (Transwell® Permeable Support 12 mm Insert, Corning Life Sciences, Tewksbury, MA, USA) and cultured to confluence under air-liquid interface conditions. Culture media on the baso-lateral sides of the cells were changed every 24 h. For TEER measurements, culture medium was discarded from the cell layer and replaced with Kreb’s Balanced Saline Solutions (KBSS) on both the apical and baso-lateral sides of the monolayers. Cell layers were allowed equilibrating in KBSS at 37 °C, 5% CO2 for 45 min prior to sample application. Baseline TEER was measured before the treatment with surfactants. For each surfactant, concentrations that caused 50% cell viability, and the highest concentration that maintained 100% cell viability (according to the MTT assay) were added to the apical sides of the cell layers and incubated for 2 h. TEER was then measured at 5, 30, 60, 90 and 120 min after surfactant addition. Between TEER measurements, cells were incubated at normal cell culture conditions. After 120 min, surfactant was removed, and culture media were added to both sides of the filter inserts. TEER measurement was conducted again after 24 h to evaluate the recovery of cell monolayers. A volt-ohmmeter (Millcell® ERS-2 Voltohmmeter, Millipore, Burlington, MA, USA) equipped with a pair of electrodes was used for TEER measurement. Baseline TEER measured from cell layers incubated in KBSS was used as control and the change in TEER was presented as a percentage relative to baseline value. Three independent experiments were performed in duplicate.

[7] = tested on: Caco-2 cell monolayer; experiment: as above; assay type: cell-based; conditions: Caco-2 monolayer, apical, 2 h; applied at MTT IC50 and at highest 100% viability concentration
Procedure: as §4

[8] = tested on: Caco-2 cells; experiment: Mitochondrial membrane potential (JC-1 assay); assay type: cell-based; conditions: Caco-2, 24 h in HBSS, same concentrations compared
Procedure: (§5) Caco-2 and Calu-3 cells were seeded in sterile 96 well plates at a density of 1 × 10^4 cells per well and cultured for 24 h. As above, surfactant solutions were applied in Hank’s balanced salt solution (HBSS) for 24 h. One millimolar FCCP was employed as the positive, mitochondrial depolarizing control. Following exposure, treatments were removed and cells were washed twice with PBS prior to the addition of 50 µL (5 µg/mL) JC-1 dye diluted in complete DMEM (without antibiotics) per well for 15 min at 37 °C. Dye solution was then removed and wells washed with PBS followed by addition of 50 µL/well PBS prior to measuring fluorescence at 550/600 nm (λex/λem) for detection of JC-1 J-aggregates and 485/535 nm (λex/λem) for detection of JC-1 monomers. A ratio between JC-1 aggregates and JC-1 monomer signals was then taken, and data normalized by setting the untreated control as a value of 1.0 and the positive control (1.0 mM FCCP) as a value of 0.0.

[9] = tested on: Calu-3 cells; experiment: Mitochondrial membrane potential (JC-1 assay); assay type: cell-based; conditions: Calu-3, 24 h in HBSS, same concentrations compared
Procedure: as §5

Compound | Amin (minimum area per surfactant molecule) [1] [Å^2] | γCMC (surface tension at CMC) [1] [mN/m] | CMC (critical micelle concentration) [1] | γCMC (surface tension at CMC) ([1]; listed as lactose caprate) | Γmax × 10^−6 (maximum surface excess) [1] [mol/m^2] | MTT Assay IC50 [2] | pIC50 [2] | MTT Assay IC50 [3] | pIC50 [3] | LDH Assay IC50 [4] | pIC50 ([4]; Homo sapiens, Caco-2, 24 h) | LDH Assay IC50 [5] | pIC50 [5] | effect on TEER [6] | effect on TEER ([6]; listed as lactose caprate) | γCMC (surface tension at CMC) ([1]; listed as lactose laurate) | effect on TEER [7] | pIC50 [4] | mitochondrial membrane potential (J-aggregates:J-monomers ratio) [8] | mitochondrial membrane potential (J-aggregates:J-monomers ratio) [9]
CCCCCCCCCC(=O)OC[C@H]1O[C@@H](O[C@H]2[C@H](O)[C@@H](O)[C@@H](O)O[C@@H]2CO)[C@H](O)[C@@H](O)[C@H]1O [Lactose caprate, 6′-O-Decanoyl-4-O-(β-D-galactopyranosyl)-D-glucopyranose] | 17.46 ± 0.25 | 40.6 ± 0.04 | 2.58 ± 0.32 mM | around 40 mN/m | 9.52 ± 0.11 | higher than the tested concentration range | < 2.70 | higher than the tested concentration range | < 2.70 | higher than the tested concentration range | < 2.70 | higher than the tested concentration range | < 2.70 | more significant decrease in TEER in Calu-3 cells compared to Caco-2 cells | only slightly affected the TEER |  |  |  |  | 
CCCCCCCCCCCC(=O)OC[C@H]1O[C@@H](O[C@H]2[C@H](O)[C@@H](O)[C@@H](O)O[C@@H]2CO)[C@H](O)[C@@H](O)[C@H]1O [Lactose laurate, 6′-O-Dodecanoyl-4-O-(β-D-galactopyranosyl)-D-glucopyranose] | 17.45 ± 0.09 | 40.4 ± 0.02 | 0.55 ± 0.02 mM |  | 9.52 ± 0.05 |  | 3.42 |  | 2.97 |  | 3.22 |  | 3.34 | most effective surfactant in decreasing the TEER at both tested concentrations |  | around 40 mN/m | moderate reduction of TEER |  |  | 
CCCCCCCCCCCCCC(=O)OC[C@H]1O[C@@H](O[C@H]2[C@H](O)[C@@H](O)[C@@H](O)O[C@@H]2CO)[C@H](O)[C@@H](O)[C@H]1O [Lactose myristate, 6′-O-Tetradecanoyl-4-O-(β-D-galactopyranosyl)-D-glucopyranose] | 19.86 ± 0.80 | 45.6 ± 0.19 | 0.14 ± 0.05 mM |  | 8.37 ± 0.46 |  | 3.95 |  | 3.58 |  | 3.71 |  | 3.72 |  |  |  |  |  |  | 
CCCCCCCCCCCCCCCC(=O)OC[C@H]1O[C@@H](O[C@H]2[C@H](O)[C@@H](O)[C@@H](O)O[C@@H]2CO)[C@H](O)[C@@H](O)[C@H]1O [Lactose palmitate, 6′-O-Esadecanoyl-4-O-(β-D-galactopyranosyl)-D-glucopyranose] | 25.69 ± 0.43 | 45.1 ± 0.33 | 0.08 mM and 0.08 ± 0.03 mM |  | 6.46 ± 0.11 |  | 4.22 |  | 3.91 |  | 3.71 |  | 3.85 |  |  |  |  | 3.79 | highest cytotoxic effect | highest cytotoxic effect
